# From patent US12577273B2, “Small molecule modulators of gut bacterial bile acid metabolism” (priority 2019, dated 2026)
# Values joined by “and” are separate entries in the source; they are usually repeats but may differ in a detail not shown here. Equal entries are not always repeated. “Also recorded” adds a separate entry of the source.
# T1: B. longum BSH (Bifidobacterium longum, UniProt Q9KK62)
# T1 sequence (Q9KK62 1-317): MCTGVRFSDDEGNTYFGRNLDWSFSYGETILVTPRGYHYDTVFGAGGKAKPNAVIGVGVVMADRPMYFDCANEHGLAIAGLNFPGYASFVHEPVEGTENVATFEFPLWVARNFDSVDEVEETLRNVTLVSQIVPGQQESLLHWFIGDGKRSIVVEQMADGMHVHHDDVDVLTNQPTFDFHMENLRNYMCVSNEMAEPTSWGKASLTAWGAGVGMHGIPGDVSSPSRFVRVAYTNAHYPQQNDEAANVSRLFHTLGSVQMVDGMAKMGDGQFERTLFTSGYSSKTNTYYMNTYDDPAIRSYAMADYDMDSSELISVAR
# How the values were obtained:
# B. fragilis = test: Inhibitor screen in bacteria, B. fragilis culture; format: cell-based, Bacteroides fragilis ATCC 25285; details: FIG. 2c, 100 μM inhibitor, 100 μM bile acid pool, 21 h, replicates 1-3
# Procedure: (§1) Bacterial Culturing. All bacterial strains were cultured at 37° C. in Cullen-Haiser Gut (CHG) media (which consists of brain heart infusion media (Bacto™ BHI, BD) supplemented with 1% BBL vitamin K1-hemin solution (BD), 1% trace minerals solution (ATCC), 1% trace vitamins solution (ATCC), 5% fetal bovine serum (Hyclone), 1 g/L cellubiose, 1 g/L maltose, and 1 g/L fructose) or BHI^+ (Bacto™ BHI, BD, supplemented with 5 mg/L hemin, and 2.5 uL/L Vitamin K1). All strains were grown under anaerobic conditions in a anaerobic chamber (Coy Lab Products Airlock) with a gas mix of 5% hydrogen and 20% carbon dioxide nitrogen. Escherichia coli was grown aerobically at 37° C. in LB medium supplemented with ampicillin to select for the pET21b plasmid.
# (§2) Inhibitor Screen in Bacteria. Bacterial cultures were diluted to OD600 of 0.1 in 4 mL BHI^+, containing 100 μM taurine conjugated bile acid pool 100 μM inhibitors. […] After 21 h, serial dilutions were plated on BHI^+ agar to determine cell viability (CFU/mL). […] The cultures were spun down in a centrifuge at 2,500 g for 5 mins to obtain better separation. The organic layer was then removed and the aqueous layer was extracted again using 2 mL of ethyl acetate.
# B. theta BSH = B. theta BSH (Bacteroides thetaiotaomicron, UniProt Q8A600); test: Inhibitor screen using rBSH, B. theta BSH (UPLC-MS % deconjugation); details: 100 μM inhibitor, 30 min preincubation, monitored over 21 hours
# B. theta BSH KO strain = test: Incubation with BSH-deleted B. theta strain; details: 100 μM inhibitor
# [1] = tested on: BSH activity in conventional mouse feces; test: Screen of inhibitors in conventional mouse feces; format: biochemical
# Procedure: Screen of Inhibitors in Conventional Mouse Feces. […] The tubes were then frozen in dry ice for 5 mins and upon thawing were diluted with an equal volume of methanol. […] The supernatant was removed into a clean eppendorf tube and centrifuged again. […] The concentration of product detected from these assays was reported directly.
# [2] = tested on: three Gram negative and three Gram positive strains of human gut bacteria; test: BSH inhibition in growing cultures of six gut bacterial strains (overall statements); format: cell-based; details: 100 μM inhibitor, 100 μM conjugated bile acid mixture
# B. vulgatus = test: Inhibitor screen in bacteria, B. vulgatus culture; format: cell-based, Bacteroides vulgatus ATCC 8482; details: FIG. 2c, 100 μM inhibitor, 100 μM bile acid pool, 21 h, replicates 1-3
# Procedure: as §1, §2
# B. adolescentis = test: Inhibitor screen in bacteria, B. adolescentis culture; format: cell-based, Bifidobacterium adolescentis L2-32; details: FIG. 2c, 100 μM inhibitor, 100 μM bile acid pool, 21 h, replicates 1-3
# L. plantarum = test: Inhibitor screen in bacteria, L. plantarum culture; format: cell-based, Lactobacillus plantarum WCFS1
# [3] = tested on: three Gram negative and three Gram positive strains of human gut bacteria; test: Growth (OD600) and cell viability (CFU/mL) of the six gut bacterial strains; details: 100 μM inhibitor
# C. perfingens = format: cell-based, Clostridium perfringens ATCC 13124; details: FIG. 2c, C. perfingens culture; 100 μM inhibitor, 100 μM bile acid pool, 21 h; replicates 1-3
# B. longum BSH = target: T1, B. longum BSH; test: Inhibitor screen using rBSH, B. longum BSH (UPLC-MS % deconjugation); format: biochemical, Bifidobacterium longum SBT2928; design: His6 (C); made in house; host or cells: Escherichia coli (as for the B. theta enzyme); details: 100 μM inhibitor; 2 h, 5 h and 21 h timepoints
# Procedure: B. longum rBSH. Recombinant BSH from B. longum SBT2928 was expressed and purified as above, except 0.25 mM IPTG was used for protein expression and 1 mM TCEP for protein purification.
# Inhibitor Screen Using rBSHs.
# B. theta = test: Inhibitor screen in bacteria, B. theta culture; format: cell-based, Bacteroides thetaiotaomicron VPI-5482; details: FIG. 2c, 100 μM inhibitor, 21 h, replicates 1-3
# Procedure: as §1, §2
# [4] = substrate: C[C@H](CCC(=O)NCCS(=O)(=O)O)[C@H]1CC[C@H]2[C@@H]3[C@@H](O)C[C@@H]4C[C@H](O)CC[C@]4(C)[C@H]3CC[C@]12C; test: purified protein, by the assay type
# [5] = substrate: C[C@H](CCC(=O)NCCS(=O)(=O)O)[C@H]1CC[C@H]2[C@@H]3CC[C@@H]4C[C@H](O)CC[C@]4(C)[C@H]3C[C@H](O)[C@]12C; test: purified protein, by the assay type
# [6] = substrate: C[C@H](CCC(=O)NCCS(=O)(=O)O)[C@H]1CC[C@H]2[C@@H]3[C@H](O)C[C@@H]4C[C@H](O)CC[C@]4(C)[C@H]3C[C@H](O)[C@]12C; test: purified protein, by the assay type; details: other: Table 3; substrate of B. longum BSH; mean ± SEM, n = 3; pH 7.5; 37.0 °C
# [7] = FIG. 2c, L. plantarum culture, 100 μM inhibitor, 100 μM bile acid pool, 21 h, replicates 1-3
# [8] = other: Table 1, substrate of B. longum BSH, PBS pH 7.5, 37° C.
# [9] = other: Table 3, substrate of B. longum BSH, mean ± SEM, n = 3, pH 7.5, 37.0 °C
molecule,measurement,setting,value
"O=C(/C=C/c1ccc(O)c(O)c1)OCCc1ccccc1 [CAPE, caffeic acid phenethyl ester, reference compound]",% deconjugation of TCA,B. fragilis,88.33% and 85.35% and 84.93%
same,% deconjugation of TDCA,B. fragilis,98.95% and 98.93% and 99.13%
same,% deconjugation of TUDCA,B. fragilis,98.66% and 98.65% and 99.13%
same,% deconjugation of TβMCA,B. fragilis,98.64% and 98.42% and 99.12%
same,inhibition of B. theta BSH (in words),B. theta BSH,only moderate inhibition
same,bactericidal effect on BSH-deleted B. theta (CFUs after 24 h),B. theta BSH KO strain,significantly affect the growth
same,BSH activity in resuspended conventional mouse feces (in words),"[1]; 20 μM inhibitor, 30 min, then GCDCA-d4 100 μM, 18 hours",minimal inhibitory activity; also recorded: no inhibition of BSH activity in feces
same,deconjugation in resuspended mouse feces (in words),[1]; either 20 μM or 100 μM,did not noticeably reduce deconjugation
same,deconjugation / BSH inhibition in cultures of the six bacterial strains (in words),[2],no inhibition of deconjugation was observed over the course of 21 hours in five out of the six bacterial strains; also recorded: neither riboflavin nor CAPE displayed significant inhibitory activity against any of the Gram negative strains; also recorded: No BSH inhibition in five out of the six bacterial strains
same,% deconjugation of TCA,B. vulgatus,1.46% and 1.06% and 0.00%
same,% deconjugation of TDCA,B. vulgatus,5.47% and 3.03% and 1.28%
same,% deconjugation of TUDCA,B. vulgatus,82.37% and 94.25% and 87.91%
same,% deconjugation of TβMCA,B. vulgatus,88.92% and 78.15% and 71.86%
same,% deconjugation of TCA,B. adolescentis,100.00%
same,% deconjugation of TDCA,B. adolescentis,99.85% and 100.00% and 99.71%
same,% deconjugation of TUDCA,B. adolescentis,99.43% (2×) and 100.00%
same,% deconjugation of TβMCA,B. adolescentis,100.00%
same,inhibition of deconjugation in L. plantarum (in words),L. plantarum; 100 μM CAPE,inhibit deconjugation in L. plantarum
same,% deconjugation of TCA,L. plantarum; [7],10.67% and 33.19% and 53.29%
same,% deconjugation of TDCA,L. plantarum; [7],47.57% and 82.98% and 93.57%
same,% deconjugation of TUDCA,L. plantarum; [7],6.80% and 1.73% and 3.54%
same,% deconjugation of TβMCA,L. plantarum; [7],0.06% and 0.59% and 0.95%
same,"effect on bacterial cell viability (CFU/mL, plated at 21 h)",[3],decreased the cell viability of the Gram negative strains tested; also recorded: inhibited the cell viability of all three Gram negative bacterial strains tested
same,effect on bacterial growth (OD600 at 24 hours),[3],inhibited the growth of the Gram positive strains tested; also recorded: inhibited the growth of all three Gram negative bacterial strains tested; also recorded: significantly inhibits the growth of the strains of Gram negative gut bacteria tested
same,% deconjugation of TCA,C. perfingens,100.00%
same,% deconjugation of TDCA,C. perfingens,99.71% and 99.30% and 99.38%
same,% deconjugation of TUDCA,C. perfingens,98.92% and 98.62% and 98.71%
same,% deconjugation of TβMCA,C. perfingens,100.00%
same,inhibition of B. longum BSH (in words),B. longum BSH,ineffective
same,% deconjugation of TDCA,B. theta; 100 μM bile acid pool,2.06% and 0.90% and 0.81%
same,% deconjugation of TUDCA,B. theta; 100 μM bile acid pool,2.31% and 5.36% and 2.32%
same,% deconjugation of TβMCA,B. theta; 100 μM bile acid pool,0.64% and 0.28% and 0.16%
same,% deconjugation of TCA,B. theta; 100 μM taurine conjugated bile acid pool,0.42% and 0.72% and 0.52%
B. longum BSH (Bifidobacterium longum) (protein) MCTGVRFSDDEGNTYFGRNLDWSFSYGETILVTPRGYHYDTVFGAGGKAKPNAVIGVGVVMADRPMYFDCANEHGLAIAGLNFPGYASFVHEPVEGTENVATFEFPLWVARNFDSVDEVEETLRNVTLVSQIVPGQQESLLHWFIGDGKRSIVVEQMADGMHVHHDDVDVLTNQPTFDFHMENLRNYMCVSNEMAEPTSWGKASLTAWGAGVGMHGIPGDVSSPSRFVRVAYTNAHYPQQNDEAANVSRLFHTLGSVQMVDGMAKMGDGQFERTLFTSGYSSKTNTYYMNTYDDPAIRSYAMADYDMDSSELISVAR,Km,[4]; [8],4.14 mM
same,Km,[4]; [9],4.1 ± 2.5 mM
same,Km,[5]; [8],2.28 mM
same,Km,[5]; [9],2.3 ± 0.3 mM
same,Km,[6],8.3 ± 2.5 mM
same,kcat,[6],0.115 s⁻¹
same,kcat/Km,[6],13.3 M⁻¹ s⁻¹
